Consider 25 compounds from ChEMBL document CHEMBL4177638, “Challenges in the development of an M4 PAM preclinical candidate: The discovery, SAR, and biological characterization of a series of azetidine-derived tertiary amides” (Bioorg Med Chem Lett, 2017).

The source made the active and inactive calls. The calls are words filed in the database; no cut-off is given here.

Series [1] has as its target T1, Muscarinic acetylcholine receptor M4 (Homo sapiens) (UniProt P08173).
T1 sequence (whole entry): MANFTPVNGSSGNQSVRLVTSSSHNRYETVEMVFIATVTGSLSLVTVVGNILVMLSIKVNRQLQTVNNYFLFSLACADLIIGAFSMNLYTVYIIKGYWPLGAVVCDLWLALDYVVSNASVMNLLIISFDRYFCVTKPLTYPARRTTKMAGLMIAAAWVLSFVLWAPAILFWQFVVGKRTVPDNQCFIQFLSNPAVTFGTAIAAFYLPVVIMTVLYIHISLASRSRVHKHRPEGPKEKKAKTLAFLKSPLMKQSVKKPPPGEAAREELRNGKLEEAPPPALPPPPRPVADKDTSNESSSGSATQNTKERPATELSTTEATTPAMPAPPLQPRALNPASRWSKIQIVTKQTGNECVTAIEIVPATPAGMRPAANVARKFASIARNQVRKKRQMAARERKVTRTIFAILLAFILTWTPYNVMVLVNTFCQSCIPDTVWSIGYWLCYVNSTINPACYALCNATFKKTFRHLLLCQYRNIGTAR
Nature of the series: Positive allosteric modulation of human M4 receptor expressed in CHO cells co-expressing Gqi5 assessed as increase in acetylcholine-induced calcium mobilization relative to acetylcholine. The format is functional, cell-based. (A change in cytosolic calcium serves as a functional read-out for many receptors and channels.)

The target in series [2] is T2, Muscarinic acetylcholine receptor M4 (Homo sapiens, UniProt P08173).
T2 sequence (P08173 whole entry): T1 sequence (whole entry)
Nature of the series: Positive allosteric modulation of human M4 receptor expressed in CHO cells co-expressing Gqi5 assessed as increase in acetylcholine-induced calcium mobilization. The format is functional, cell-based.

Series [3] concerns the target T3, Muscarinic acetylcholine receptor M2 (Homo sapiens, UniProt P08172).
T3 sequence (P08172 whole entry): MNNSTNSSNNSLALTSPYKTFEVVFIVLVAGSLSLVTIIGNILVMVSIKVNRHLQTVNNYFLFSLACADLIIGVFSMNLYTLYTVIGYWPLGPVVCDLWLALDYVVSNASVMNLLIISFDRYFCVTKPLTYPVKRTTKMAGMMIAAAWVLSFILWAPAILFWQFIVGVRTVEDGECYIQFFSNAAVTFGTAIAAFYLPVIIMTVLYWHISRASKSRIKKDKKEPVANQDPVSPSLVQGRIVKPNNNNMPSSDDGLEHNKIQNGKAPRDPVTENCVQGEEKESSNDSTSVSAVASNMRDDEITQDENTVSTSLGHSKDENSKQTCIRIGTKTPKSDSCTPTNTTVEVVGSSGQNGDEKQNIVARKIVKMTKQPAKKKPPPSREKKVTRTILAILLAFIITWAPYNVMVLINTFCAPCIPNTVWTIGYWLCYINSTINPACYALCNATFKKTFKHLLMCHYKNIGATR
Nature of the series: (§1) Positive allosteric modulation of human M2 receptor assessed as increase in acetylcholine-induced response. The format is functional.

Series [4] has as its target Muscarinic acetylcholine receptor M3 (Homo sapiens, UniProt P20309). Nature of the series: Positive allosteric modulation of human M3 receptor assessed as increase in acetylcholine-induced response. It counts as functional.
In series [5] the target is T4, Muscarinic acetylcholine receptor M1 (Homo sapiens, UniProt P11229).
T4 sequence (P11229 whole entry): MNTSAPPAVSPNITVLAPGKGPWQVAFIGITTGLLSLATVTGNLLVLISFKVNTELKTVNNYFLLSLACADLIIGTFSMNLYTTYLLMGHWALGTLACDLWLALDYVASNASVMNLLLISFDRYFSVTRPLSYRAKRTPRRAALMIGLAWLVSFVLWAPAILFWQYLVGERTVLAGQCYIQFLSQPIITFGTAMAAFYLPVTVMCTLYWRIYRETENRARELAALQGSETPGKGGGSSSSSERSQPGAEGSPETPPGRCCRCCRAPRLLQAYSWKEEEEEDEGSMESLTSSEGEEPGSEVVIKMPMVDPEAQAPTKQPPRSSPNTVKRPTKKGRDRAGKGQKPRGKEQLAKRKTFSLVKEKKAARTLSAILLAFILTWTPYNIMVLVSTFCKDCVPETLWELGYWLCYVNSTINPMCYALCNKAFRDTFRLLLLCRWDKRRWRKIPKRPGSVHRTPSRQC
The series is described as follows: Positive allosteric modulation of human M1 receptor assessed as increase in acetylcholine-induced response. It counts as functional.

The nature of series [6]: Ratio of unbound brain to plasma concentration in rat. It counts as ADME, cell-free.
A short description of series [7]: Brain to plasma partition coefficient, Kp of the compound in rat. The format is ADME, cell-free.
A short description of series [8]: Ratio of EC50 for rat M4 receptor to EC50 for human M4 receptor expressed in CHO cells co-expressing Gqi5. The format is cell-based.
The subject of the next series is Rattus norvegicus. The series is described as follows: Antipsychotic activity in rat assessed as reversal of amphetamine-induced hyperlocomotion at 30 mg/kg, po. The format is functional.
In series [9] the target is T5, Muscarinic acetylcholine receptor M5 (Homo sapiens, UniProt P08912).
T5 sequence (P08912 whole entry): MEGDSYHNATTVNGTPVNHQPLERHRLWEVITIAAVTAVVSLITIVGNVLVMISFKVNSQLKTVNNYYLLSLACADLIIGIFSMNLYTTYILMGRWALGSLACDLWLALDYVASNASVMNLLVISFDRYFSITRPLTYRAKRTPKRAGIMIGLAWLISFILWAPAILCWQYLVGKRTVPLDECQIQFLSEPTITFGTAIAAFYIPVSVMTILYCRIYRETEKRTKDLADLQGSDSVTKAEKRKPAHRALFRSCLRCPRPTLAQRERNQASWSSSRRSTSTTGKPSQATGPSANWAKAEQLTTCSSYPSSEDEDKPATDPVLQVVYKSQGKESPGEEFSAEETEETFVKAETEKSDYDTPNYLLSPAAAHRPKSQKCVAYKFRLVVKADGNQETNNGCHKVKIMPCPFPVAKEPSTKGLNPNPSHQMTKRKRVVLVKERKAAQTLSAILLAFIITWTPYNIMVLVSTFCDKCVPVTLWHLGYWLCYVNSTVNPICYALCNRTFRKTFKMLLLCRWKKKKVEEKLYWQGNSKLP
Nature of the series: Positive allosteric modulation of human M5 receptor assessed as increase in acetylcholine-induced response. The format is functional.

The nature of series [10]: Oral bioavailability in dog at 10 mg/kg. The conditions noted are these: in vivo. The format is ADME, organism-based, Canis lupus familiaris.
The target in series [11] is T6, Muscarinic acetylcholine receptor M2 (Homo sapiens) (UniProt P08172).
T6 sequence (whole entry): T3 sequence (P08172 whole entry)
Nature of the series: Positive allosteric modulation of human M2 receptor assessed as increase in acetylcholine-induced response relative to acetylcholine. It counts as functional.

Series [12] addresses T6, Muscarinic acetylcholine receptor M2 (Homo sapiens). The series is described as §1. The format is functional.
Series [13] is described as follows: Ratio of unbound brain to plasma concentration in Sprague-Dawley rat at 0.1 to 0.2 mg/kg, iv measured after 0.25 hrs. It counts as ADME, organism-based. The conditions noted are these: read-out: K(p,uu,brain).
Series [14] can be described thus: Aqueous solubility of the compound at pH 7.4. The format is physicochemical. The settings on record: aqueous medium.
Series [15] can be described thus: Clearance in Sprague-Dawley rat plasma at 0.1 to 1 mg/kg, iv. The format is ADME, organism-based.
Series [16] in a line: Brain to plasma partition coefficient, Kp of the compound in Sprague-Dawley rat at 0.1 to 0.2 mg/kg, iv measured after 0.25 hrs. It counts as ADME, organism-based.
Series [17] is described as follows: Elimination half life in Sprague-Dawley rat at 0.1 to 1 mg/kg, iv. The format is ADME, organism-based. The conditions noted are these: in vivo, read-out: beta t1/2 (converted).

Chain of Muscarinic acetylcholine receptor M3 (P20309 whole entry): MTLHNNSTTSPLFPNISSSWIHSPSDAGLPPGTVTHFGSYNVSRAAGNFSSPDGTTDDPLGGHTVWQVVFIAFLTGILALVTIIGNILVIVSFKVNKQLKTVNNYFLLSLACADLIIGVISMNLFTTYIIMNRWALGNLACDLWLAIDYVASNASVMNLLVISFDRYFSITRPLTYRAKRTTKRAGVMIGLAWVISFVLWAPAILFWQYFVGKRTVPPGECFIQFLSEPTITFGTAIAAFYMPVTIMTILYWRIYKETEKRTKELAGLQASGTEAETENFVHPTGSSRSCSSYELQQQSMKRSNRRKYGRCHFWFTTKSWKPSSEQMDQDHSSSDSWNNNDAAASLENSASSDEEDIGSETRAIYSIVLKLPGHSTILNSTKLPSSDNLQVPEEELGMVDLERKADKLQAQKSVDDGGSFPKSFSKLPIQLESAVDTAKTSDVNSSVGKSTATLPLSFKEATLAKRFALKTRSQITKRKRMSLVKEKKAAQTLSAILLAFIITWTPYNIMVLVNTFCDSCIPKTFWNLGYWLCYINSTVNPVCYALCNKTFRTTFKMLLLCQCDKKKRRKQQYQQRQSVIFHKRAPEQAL

The term EC50 denotes the midpoint of the concentration-response curve. As for `Cc1nnc2sc(C(=O)N3CC(c4cccs4)C3)c(N)c2c1C`, the %max in series [1] came out at 78%. Further, the concentration giving a half-maximal response (EC50) in series [2] is 200 nM.
As usually defined, the Kp is tissue or fluid exposure divided by exposure in the circulation. Turning to `Cc1nnc2sc(C(=O)N3CC(c4ccccc4)C3)c(N)c2c1C`, in series [1], the %max was 65%. In addition, the EC50 is over 10000 nM in series [3]; 72 nM in [2]; over 10000 nM in series [4]; over 10000 nM in [5]; over 10000 nM in series [9]. In [6], the “K(p,uu,brain)” value was 2.1. The compound also registered a concentration ratio (Kp) in [7] of 2.6. In series [8], the Ratio EC50 came out at 2. For the same compound, the Activity in the series with Rattus norvegicus stood at 32%.
For the compound `Cc1ccccc1C1CN(C(=O)c2sc3nnc(C)c(C)c3c2N)C1`, the %max in [1] was determined as 72%. Moreover, the EC50 in series [2] came to 457 nM.
The corresponding values for `Cc1nnc2sc(C(=O)N3CC(F)(c4ccccn4)C3)c(N)c2c1C` are 78% and 2240 nM.
Broadly, the bioavailability is the share of a dose that reaches the circulation, judged against a reference dose that is usually intravenous. On to `Cc1nnc2sc(C(=O)NCc3ccc(S(=O)(=O)C(F)(F)F)cc3)c(N)c2c1C.Cl`, for which the bioavailability in series [10] was 4.7%.
On to `COC1(c2cccc(F)c2)CN(C(=O)c2sc3nnc(C)c(C)c3c2N)C1`, for which the %max in series [1] stood at 36%. In series [2], the 50% effective concentration (EC50) turned out to be 417 nM.
`Cc1nnc2sc(C(=O)N3CC(c4cccc(F)c4)C3)c(N)c2c1C`: the %max was 83% in series [1] and 38% in series [11]. Also, the concentration for a half-maximal effect (EC50) is 2100 nM in [3] and 57 nM in [2]. The “K(p,uu,brain)” value in [6] is given as 0.92. Also, the Kp in series [7] amounted to 2.1.
In the case of `Cc1nnc2sc(C(=O)N3CC4(CCN(c5cccnc5)C4)C3)c(N)c2c1C`, in series [1], the %max is 53 to 57%.
For the compound `Cc1nnc2sc(C(=O)N3CC(c4ccc(F)cc4)C3)c(N)c2c1C`, the %max in series [1] was determined as 80%. Also, the outcome in [12] was inactive. In series [2], the EC50 turned out to be 151 nM. Moreover, the “K(p,uu,brain)” value in series [6] is reported as 1.3. Besides, the Kp in series [7] is given as 2.3.
On to `Cc1nnc2sc(C(=O)N3CC(F)(c4cccc(F)c4)C3)c(N)c2c1C`, for which, in series [1], the %max is 67%. Besides, in series [2], the EC50 is 447 nM.
For the compound `Cc1cccc(C2CN(C(=O)c3sc4nnc(C)c(C)c4c3N)C2)c1`, the %max in [1] came to 83%. The EC50 in series [2] is 851 nM.
The corresponding values for `COc1ccccc1C1CN(C(=O)c2sc3nnc(C)c(C)c3c2N)C1` are 54% and 2290 nM.
As to `Cc1nnc2sc(C(=O)N3CC(c4ccc(Cl)cc4)C3)c(N)c2c1C`, the concentration giving a half-maximal response (EC50) in series [2] is over 10000 nM.
With `Cc1ccc(C2CN(C(=O)c3sc4nnc(C)c(C)c4c3N)C2)cc1`, the %max in series [1] is 82%. For the same compound, in [2], the EC50 came out at 1100 nM.
Consider `Cc1nnc2sc(C(=O)N3CC(c4cccc(F)c4)C3C)c(N)c2c1C` (stereo not given), for which the %max in series [1] turned out to be 45%. The EC50 in series [2] is 1460 nM.
For `CCCCC1(F)CN(C(=O)c2sc3nnc(C)c(C)c3c2N)C1`, in series [1], the %max was 85%. In series [2], the concentration for a half-maximal effect (EC50) was determined as 316 nM.
For `Cc1nnc2sc(C(=O)N3CC(c4ccccc4)C3C)c(N)c2c1C` (stereo not given), the %max in series [1] came out at 45%. For the same compound, the EC50 in [2] was found to be 1510 nM.
A word on the solubility: it is the concentration that dissolves in the medium under given conditions. Low readings indicate a poorly soluble substance, high ones a readily soluble substance. By clearance is commonly meant the rate of elimination divided by the concentration. With `Cc1nnc2sc(C(=O)NCc3ccc(S(=O)(=O)C(F)(F)F)cc3)c(N)c2c1C`, the Kp uu at 0.25 h in series [13] amounted to 1.2. In series [14], this compound showed a solubility of under 0.5 µM. The same compound came in with a clearance in series [15] of 1.6 mL/min/kg. The same compound yielded a Kp at 0.25 h in series [16] of 0.11. Moreover, the half-life in series [17] was 2.7 h.
In the case of `Cc1nnc2sc(C(=O)N3CC(c4ccc(Br)cc4)C3)c(N)c2c1C`, the EC50 in [2] was over 10000 nM.
`Cc1nnc2sc(C(=O)N3CC(C)(F)C3)c(N)c2c1C`: the %max in series [1] was 98%. Moreover, the half-maximal effective concentration (EC50) in series [2] amounted to 363 nM.
On to `COc1cccc(C2CN(C(=O)c3sc4nnc(C)c(C)c4c3N)C2)c1`, for which, in series [2], the EC50 is over 10000 nM.
As to `Cc1nnc2sc(C(=O)N3CC(c4ccccc4F)C3)c(N)c2c1C`, in series [1], the %max was 75%. In series [2], the concentration giving a half-maximal response (EC50) turned out to be 407 nM.
For `COc1ccc(C2CN(C(=O)c3sc4nnc(C)c(C)c4c3N)C2)cc1`, the %max in [1] amounted to 94%. The half-maximal effective concentration (EC50) in [2] came out at 331 nM.
Regarding `Cc1nnc2sc(C(=O)N3CC(C4CCCCC4)C3)c(N)c2c1C`, the %max in series [1] turned out to be 54%. Also, in [2], the concentration giving a half-maximal response (EC50) worked out at 178 nM. Also, the “K(p,uu,brain)” value in series [6] is 0.71. This compound also yielded a Kp in series [7] of 8.46.
As for `Cc1nnc2sc(C(=O)N3CC(O)(c4ccccc4)C3)c(N)c2c1C`, the %max in [1] is 30%. The EC50 in series [2] came to 1050 nM.
